Where two headings read alike, the source gives them in different places.
Legend:
human D3R = human D3R (Homo sapiens (Human), UniProt P35462); test: Radioligand competition binding, [3H]N-methylspiperone, HEK293 membranes expressing human D3R; conditions: for D2/D3: ratio of Ki values; for Ki: read-out: D3R Ki ± SEM
Method: (§1) Binding at dopamine D2-like receptors was determined using previously described methods. […] Upon reaching 80-90% confluence, cells were harvested using pre-mixed Earle's Balanced Salt Solution (EBSS) with […] EDTA (Life Technologies) and centrifuged at 3000 rpm for 10 min at 21° C. The supernatant was removed and the pellet was resuspended in 10 mL hypotonic lysis buffer (5 mM MgCl2.6H2O, 5 mM Tris, pH 7.4 at 4° C.) and centrifuged at 20,000 rpm for 30 min at 4° C. The pellet was then resuspended in fresh EBSS buffer made from 8.7 g/L Earle's Balanced Salts without phenol red (US Biological, Salem, Mass.), 2.2 g/L sodium bicarbonate, pH to 7.4. A Bradford protein assay (Bio-Rad, Hercules, Calif.) was used to determine the protein concentration and membranes were diluted to 500 μg/mL and stored in a −80° C. freezer for later use.
(§2) Radioligand competition binding experiments were conducted using thawed membranes. Test compounds were freshly dissolved in 30% DMSO and 70% H2O to a stock concentration of 100 μM. To assist the solubilization of free-base compounds, 10 μl of glacial acetic acid was added along with the DMSO. Each test compound was then diluted into 13 half-log serial dilutions using 30% DMSO vehicle; final test concentrations ranged from 10 μM to 10 pM. Previously frozen membranes were diluted in fresh EBSS to a 100 μg/mL (for hD2R or hD3R) or 200 μg/mL (hD4R) stock for binding. […] buffer with 0.2 mM sodium metabisulfite, 50 μl of diluted test compound, 100 μl of membranes (10 μg total protein for hD2R or hD3R, 20 μg total protein for hD4R), and 50 μl of [^3H]N-methylspiperone (0.4 nM final concentration; Perkin Elmer). Nonspecific binding was determined using 10 μM butaclamol (Sigma-Aldrich, St. Louis, Mo.) and total binding was determined with 30% DMSO vehicle. All compound dilutions were tested in triplicate and the reaction incubated for one hour at room temperature. The reaction was terminated by filtration through Whatman GF/B filters, presoaked for one hour in 0.5% polyethylenimine, using a Brandel R48 filtering manifold (Brandel Instruments, Gaithersburg, Md.). The filters were washed 3 times with 3 mL of ice cold EBSS buffer and transferred to scintillation vials. […] IC50 values for each compound were determined from dose-response curves and Ki values were calculated using the Cheng-Prusoff equation; these analyses were performed using GraphPad Prism version 5.00 for Windows (GraphPad Software, San Diego, Calif.). Reported Ki values were determined from least three independent experiments.
(§3) The binding affinities of the compounds were evaluated by performing competition binding studies with [^3H]N-methylspiperone using membranes prepared from HEK293 cells expressing either the human D2R or D3R.

human D2R = human D2R (Homo sapiens (Human), UniProt P14416); test: Radioligand competition binding, [3H]N-methylspiperone, HEK293 membranes expressing human D2R; conditions: read-out: D2R Ki ± SEM
Method: as §1, §2, §3

human D4R = human D4R (Homo sapiens (Human), UniProt P21917); test: Radioligand competition binding, [3H]N-methylspiperone, HEK293 membranes expressing human D4R; conditions: Table 1A; for Ki: [3H]N-methylspiperone, read-out: D4R Ki ± SEM; for D4/D2 / D4/D3: ratio of Ki values
Method: Binding at dopamine D2-like receptors was determined using previously described methods. (Chen et al. “Tranylcypromine substituted cis-hydroxycyclobutylnaphthamides as potent and selective dopamine D(3) receptor antagonists.” J. Med. Chem. 2014, 57, 4962-4968) Membranes were prepared from HEK293 cells expressing human D2R, D3R or D4R, grown in a 50:50 mix of DMEM and Ham's F12 culture media, supplemented with 20 mM HEPES, 2 mM L-glutamine, 0.1 mM non-essential amino acids, 1× antibiotic/antimycotic, 10% heat-inactivated fetal bovine serum, and 200 μg/mL hygromycin (Life Technologies, Grand Island, N.Y.) and kept in an incubator at 37° C. and 5% CO2. Upon reaching 80-90% confluence, cells were harvested using pre-mixed Earle's Balanced Salt Solution (EBSS) with […] EDTA (Life Technologies) and centrifuged at 3000 rpm for 10 min at 21° C. The supernatant was removed and the pellet was resuspended in 10 mL hypotonic lysis buffer (5 mM MgCl2.6H2O, 5 mM Tris, pH 7.4 at 4° C.) and centrifuged at 20,000 rpm for 30 min at 4° C. The pellet was then resuspended in fresh EBSS buffer made from 8.7 g/L Earle's Balanced Salts without phenol red (US Biological, Salem, Mass.), 2.2 g/L sodium bicarbonate, pH to 7.4. A Bradford protein assay (Bio-Rad, Hercules, Calif.) was used to determine the protein concentration and membranes were diluted to 500 μg/mL and stored in a −80° C. freezer for later use.
Radioligand competition binding experiments were conducted using thawed membranes. Test compounds were freshly dissolved in 30% DMSO and 70% H2O to a stock concentration of 100 μM. To assist the solubilization of free-base compounds, 10 μl of glacial acetic acid was added along with the DMSO. Each test compound was then diluted into 13 half-log serial dilutions using 30% DMSO vehicle; final test concentrations ranged from 10 μM to 10 pM. Previously frozen membranes were diluted in fresh EBSS to a 100 μg/mL (for hD2R or hD3R) or 200 μg/mL (hD4R) stock for binding. Radioligand competition experiments were conducted in glass tubes containing 300 μl fresh EBSS buffer with 0.2 mM sodium metabisulfite, 50 μl of diluted test compound, 100 μl of membranes (10 μg total protein for hD2R or hD3R, 20 μg total protein for hD4R), and 50 μl of [^3H]N-methylspiperone (0.4 nM final concentration; Perkin Elmer). Nonspecific binding was determined using 10 μM butaclamol (Sigma-Aldrich, St. Louis, Mo.) and total binding was determined with 30% DMSO vehicle. All compound dilutions were tested in triplicate and the reaction incubated for one hour at room temperature. The reaction was terminated by filtration through Whatman GF/B filters, presoaked for one hour in 0.5% polyethylenimine, using a Brandel R48 filtering manifold (Brandel Instruments, Gaithersburg, Md.). The filters were washed 3 times with 3 mL of ice cold EBSS buffer and transferred to scintillation vials. 3 mL CytoScint liquid scintillation cocktail (MP Biomedicals, Solon, Ohio) was added and vials were counted using a Perkin Elmer Tri-Carb 2910 TR liquid scintillation counter (Waltham, Mass.). IC50 values for each compound were determined from dose-response curves and Ki values were calculated using the Cheng-Prusoff equation; these analyses were performed using GraphPad Prism version 5.00 for Windows (GraphPad Software, San Diego, Calif.). Reported Ki values were determined from least three independent experiments.

[1] = Table 1A, HEK 293 cells transfected with hD3R, [3H]N-methylspiperone
[2] = Table 1A, HEK 293 cells transfected with hD2LR, [3H]N-methylspiperone

Chain of human D2R (P14416 whole entry): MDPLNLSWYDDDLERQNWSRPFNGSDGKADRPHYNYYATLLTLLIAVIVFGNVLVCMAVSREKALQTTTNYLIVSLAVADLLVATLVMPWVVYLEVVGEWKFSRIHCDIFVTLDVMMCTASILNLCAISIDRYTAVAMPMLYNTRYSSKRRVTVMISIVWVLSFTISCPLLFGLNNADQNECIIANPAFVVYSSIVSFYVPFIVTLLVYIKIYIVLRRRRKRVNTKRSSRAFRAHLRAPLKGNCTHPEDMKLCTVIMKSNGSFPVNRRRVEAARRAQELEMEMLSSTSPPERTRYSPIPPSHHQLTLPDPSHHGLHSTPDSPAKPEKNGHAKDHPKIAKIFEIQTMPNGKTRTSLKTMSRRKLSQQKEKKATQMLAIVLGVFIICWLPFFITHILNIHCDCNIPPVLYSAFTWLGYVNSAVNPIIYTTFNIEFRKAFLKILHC
Chain of human D4R (P21917 whole entry): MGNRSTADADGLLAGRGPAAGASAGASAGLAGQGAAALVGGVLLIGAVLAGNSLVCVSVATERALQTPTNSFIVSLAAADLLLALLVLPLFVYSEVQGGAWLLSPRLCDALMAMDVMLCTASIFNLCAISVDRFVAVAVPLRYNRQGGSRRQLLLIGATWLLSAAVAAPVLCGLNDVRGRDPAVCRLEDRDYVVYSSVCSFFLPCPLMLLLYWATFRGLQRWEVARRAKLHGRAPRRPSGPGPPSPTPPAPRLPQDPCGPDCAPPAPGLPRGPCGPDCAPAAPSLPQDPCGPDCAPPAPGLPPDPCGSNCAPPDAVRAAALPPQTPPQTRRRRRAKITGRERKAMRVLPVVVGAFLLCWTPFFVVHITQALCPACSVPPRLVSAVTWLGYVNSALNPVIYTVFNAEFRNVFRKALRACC
Chain of human D3R (P35462 whole entry): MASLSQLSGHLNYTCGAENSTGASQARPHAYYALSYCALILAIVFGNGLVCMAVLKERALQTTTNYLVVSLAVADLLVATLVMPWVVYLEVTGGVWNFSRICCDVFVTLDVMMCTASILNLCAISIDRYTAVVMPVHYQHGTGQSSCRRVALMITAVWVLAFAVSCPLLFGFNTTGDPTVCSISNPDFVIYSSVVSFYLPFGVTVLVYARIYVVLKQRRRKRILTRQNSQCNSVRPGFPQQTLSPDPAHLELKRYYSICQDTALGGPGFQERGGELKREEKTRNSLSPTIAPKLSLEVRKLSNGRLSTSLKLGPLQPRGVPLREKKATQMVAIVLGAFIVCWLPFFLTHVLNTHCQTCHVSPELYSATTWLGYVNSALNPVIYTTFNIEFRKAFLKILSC

D3R selectivity over D2R (D2R/D3R) (human D3R) | D2/D3 (human D3R; Table 1C) | Ki (human D3R; Table 1C) | Ki (human D2R; Table 1C) | Ki (human D3R; [1]) | D2/D3 (human D3R; Table 1A) | Ki (human D4R) | D4/D2 (human D4R) | D4/D3 (human D4R) | Ki (human D2R; [2]) | Structure (SMILES)
1650 fold | 1646 | 13 ± 2.94 nM | 21400 ± 1500 nM | – | – | – | – | – | – | CCc1cc(Cl)c(OC)c(N2CCN(C[C@H](F)CCNC(=O)c3cc4ccccc4[nH]3)CC2)c1 [(R)-C4a, (R)-N-(4-(4-(3-chloro-5-ethyl-2-methoxyphenyl)piperazin-1-yl)-3-fluorobutyl)-1H-indole-2-carboxamide]
215 fold | 215 | 0.373 nM | 80.2 ± 13.8 nM | – | – | – | – | – | – | CCc1cccc(N2CCN(C[C@H](F)CCNC(=O)c3cc4ccccc4[nH]3)CC2)c1Cl [(R)-C5a, (R)-N-(4-(4-(2-chloro-3-ethylphenyl)piperazin-1-yl)-3-fluorobutyl)-1H-indole-2-carboxamide]
535 fold | 535 | 35.3 nM | 18900 ± 2720 nM | – | – | – | – | – | – | CCc1cc(Cl)c(OC)c(N2CCN(C[C@@H](F)CCNC(=O)c3cc4ccccc4[nH]3)CC2)c1 [(S)-C4a, (S)-N-(4-(4-(3-chloro-5-ethyl-2-methoxyphenyl)piperazin-1-yl)-3-fluorobutyl)-1H-indole-2-carboxamidec]
> 1000 fold | 1060 | 0.84 nM | 891 ± 305 nM | – | – | – | – | – | – | CCc1cccc(N2CCN(C[C@@H](F)CCNC(=O)c3cc4ccccc4[nH]3)CC2)c1Cl [(S)-C5a, (S)-N-(4-(4-(2-chloro-3-ethylphenyl)piperazin-1-yl)-3-fluorobutyl)-1H-indole-2-carboxamide]
– | – | – | – | 0.33 ± 0.085 nM | 17.1 | 819 ± 175 nM | 145.2 | 2482 | 5.64 ± 0.98 nM | CCc1cccc(N2CCN(CCCCNC(=O)c3cn4ccccc4n3)CC2)c1Cl [Compound 22, N-(4-(4-(2-chloro-3-ethylphenyl)piperazin-1-yl)butyl)imidazo[1,2-a]pyridine-2-carboxamide]
– | – | – | – | 4.23 ± 0.84 nM | 45.6 | 11300 nM | 58.5 | 2671 | 193 ± 40.5 nM | CCc1cccc(N2CCN(CC(O)CCNC(=O)c3cn4ccccc4n3)CC2)c1Cl (stereo not shown) [Compound 23, N-(4-(4-(2-Chloro-3-ethylphenyl)piperazin-1-yl)-3-hydroxybutyl)imidazo[1,2-a]pyridine-2-carboxamide]
– | – | – | – | 0.94 ± 0.13 nM | 4.9 | 143 ± 3.18 nM | 30.8 | 152 | 4.65 ± 1.24 nM | CCc1cccc(N2CCN(CCCCNC(=O)c3c(C)nc4sccn34)CC2)c1Cl [Compound 24, N-(4-(4-(2-chloro-3-ethylphenyl)piperazin-1-yl)butyl)-6-methylimidazo[2,1-b]thiazole-5-carboxamide]
– | – | – | – | 1.14 ± 0.17 nM | 11.0 | 500 ± 30.9 nM | 40.0 | 439 | 12.5 ± 1.07 nM | CCc1c[nH]c(C(=O)NCCCCN2CCN(c3cccc(CC)c3Cl)CC2)n1 [Compound 25, N-(4-(4-(2-Chloro-3-ethylphenyl)piperazin-1-yl)butyl)-4-ethyl-1H-imidazole-2-carboxamide]
– | – | – | – | 0.62 ± 0.096 nM | 19.7 | 529 ± 42.3 nM | 43.4 | 853 | 12.2 ± 2.58 nM | CCc1cccc(N2CCN(CCCCNC(=O)c3nc(C)c[nH]3)CC2)c1Cl [Compound 26, N-(4-(4-(2-Chloro-3-ethylphenyl)piperazin-1-yl)butyl)-4-methyl-1H-imidazole-2-carboxamide]
– | – | – | – | 11.2 ± 2.66 nM | 13.4 | 1960 ± 344 nM | 13.1 | 175 | 150 ± 13.1 nM | CCc1cccc(N2CCN(CC(O)CCNC(=O)c3nc(C)c[nH]3)CC2)c1Cl (stereo not shown) [Compound 27, N-(4-(4-(2-Chloro-3-ethylphenyl)piperazin-1-yl)-3-hydroxybutyl)-4-methyl-1H-imidazole-2-carboxamide]
– | – | – | – | 1.28 ± 0.22 nM | 12.6 | 503 ± 157 nM | 31.2 | 393 | 16.1 ± 1.2 nM | CCc1cccc(N2CCN(C/C=C/CNC(=O)c3nc(C)c[nH]3)CC2)c1Cl [Compound 35, (E)-N-(4-(4-(2-Chloro-3-ethylphenyl)piperazin-1-yl)but-2-en-1-yl)-4-methyl-1H-imidazole-2-carboxamide]
– | – | – | – | 0.2 ± 0.018 nM | 34.2 | 305 ± 70.5 nM | 44.7 | 1525 | 6.83 ± 0.53 nM | CCc1cccc(N2CCN(CCC(O)CNC(=O)c3cc4ccccc4[nH]3)CC2)c1Cl (stereo not shown) [Compound 40, N-(4-(4-(2-Chloro-3-ethylphenyl)piperazin-1-yl)-2-hydroxybutyl)-1H-indole-2-carboxamide]
– | 15 | 24.5 ± 4.44 nM | 364 ± 101 nM | – | – | – | – | – | – | CCc1cc(Cl)c(OC)c(N2CCN(CC(O)CCNC(=O)c3ccc4c(c3)OCO4)CC2)c1 (stereo not shown) [Compound 113a, N-(4-(4-(3-Chloro-5-ethyl-2-methoxyphenyl)piperazin-1-yl)-3-hydroxybutyl)benzo[d][1,3]dioxole-5-carboxamide]
– | 140 | 3.02 ± 0.742 nM | 424 ± 79.9 nM | – | – | – | – | – | – | CCc1cccc(N2CCN(CC(O)CCNC(=O)c3ccc4c(c3)OCO4)CC2)c1Cl (stereo not shown) [Compound 113b, N-(4-(4-(2-Chloro-3-ethylphenyl)piperazin-1-yl)-3-hydroxybutyl)benzo[d 1,3]dioxole-5-carboxamide]
– | 61 | 23.6 ± 7.35 nM | 1440 ± 48.8 nM | – | – | – | – | – | – | CCc1cc2c(cc1N1CCN(CC(O)CCNC(=O)c3cc4ccccc4o3)CC1)OCO2 (stereo not shown) [Compound 122, N-(4-(4-(6-Ethylbenzo[d][1,3]dioxol-5-yl)piperazin-1-yl)-3-hydroxybutyl)benzofuran-2-carboxamide]

Reference: patent publication US11337971B2, “Dopamine D3 receptor selective antagonists/partial agonists and uses thereof” (THE UNITED STATES OF AMERICA, AS REPRESENTED BY THE …, priority 2018, dated 2022)
